Laboratory results published in patent US20260125375A1 (Pfizer Inc., priority 2022, published 2026).

Tests used:
[1] = target: T1, CBL-B (residues 36-427) (Homo sapiens, UniProt Q13191); assay: Ligand Displacement Assay (LDA), HTRF competitive binding against BODIPY-labeled fluorescent tracer, CBL-B; settings: geometric mean of the number of tests, read-out: CBL-B Ki (nM) GMean
T1 construct: Purified CBL-B (residues 36-427) and C-CBL (residues 46-435) proteins from baculovirus-infected insect cells; made in house; host or cells: baculovirus-infected insect cells
Source text: (§1) Ligand Displacement Assay (LDA)
(§2) The purpose of the homogeneous time-resolved fluorescence energy transfer (HTRF) ligand displacement assay is to determine whether the compounds of the disclosure are competitive with a BODIPY-labeled compound; “fluorescent tracer” aka [6-cyclopropyl-5-(17-{5-[(3,5-dimethyl-2H-pyrrol-2-ylidene-KN)methyl]-1H-pyrrol-2-yl-κN}-15-oxo-5,8,11-trioxa-2,14-diazaheptadecan-1-yl)-N-(3-{3-[(4-methyl-4H-1,2,4-triazol-3-yl)methyl]oxetan-3-yl}phenyl)pyridine-2-carboxamidato](difluorido)boron and to assess CBL-B binding selectivity over C-CBL. The synthesis of this fluorescent tracer compound is described below.
(§3) Purified CBL-B (residues 36-427) and C-CBL (residues 46-435) proteins from baculovirus-infected insect cells were biotin labeled on their amino-terminal AviTag™ epitopes by the E. coli biotin ligase BirA to bind terbium-labeled streptavidin (SA-Tb). After optimizing the assays and determining KD values for the fluorescent tracer to CBL-B and C-CBL, compounds were tested using three-fold serial dilutions in duplicate from a top concentration of […] with a final DMSO concentration of 2%. […] The Ki (nM) values reported are the geometric means (GMean) of the number of tests conducted.

[2] = target: T2, C-CBL (46-435) (Homo sapiens, UniProt P22681); assay: Surface Plasmon Resonance (SPR) assay, binding affinity and kinetics, C-CBL; settings: SPR at 10° C., biotinylated C-CBL (46-435) on streptavidin chip; geometric mean; read-out: C-CBL SPR Kd (nM) GMean
T2 construct: N-terminal biotinylated WT CBL-B (36-427) and C-CBL (46-435) were captured on a streptavidin (SA) coated sensor chip
T2 sequence (P22681 46-435): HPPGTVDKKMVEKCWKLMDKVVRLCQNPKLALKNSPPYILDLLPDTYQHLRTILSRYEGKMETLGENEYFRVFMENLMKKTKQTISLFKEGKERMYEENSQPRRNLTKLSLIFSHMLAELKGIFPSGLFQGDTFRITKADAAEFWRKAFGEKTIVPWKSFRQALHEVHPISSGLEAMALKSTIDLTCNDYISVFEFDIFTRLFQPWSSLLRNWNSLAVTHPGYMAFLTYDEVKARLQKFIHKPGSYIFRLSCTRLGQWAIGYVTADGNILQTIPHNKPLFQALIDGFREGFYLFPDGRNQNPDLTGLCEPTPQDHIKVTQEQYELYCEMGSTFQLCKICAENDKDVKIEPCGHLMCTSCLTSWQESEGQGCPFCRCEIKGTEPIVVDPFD
Method: (§4) Surface Plasmon Resonance (SPR) Assay
(§5) The purpose of the SPR assay is to evaluate the binding affinity and kinetics of the compound of disclosure binding to CBL-B and C-CBL.
(§6) The binding affinity and kinetics of compound binding to CBL-B and C-CBL were measured by Surface Plasmon Resonance (SPR) using either Biacore S200, 8K or 8K+ (Cytiva, Marlborough, MA) instruments. N-terminal biotinylated WT CBL-B (36-427) and C-CBL (46-435) were captured on a streptavidin (SA) coated sensor chip to achieve approximately 5000 to 6000 RUs of surface density. Un-functionalized SA surfaces with no immobilized protein served as reference for binding kinetic analysis. All the samples were prepared in buffer consisting of 10 mM HEPES, 150 mM NaCl, 0.05% Tween-20, 5% glycerol, […], 2% DMSO, pH 7.2. The same buffer was used as the running buffer during the experiments. Compound binding kinetics were measured in either multi-cycle or single-cycle kinetic format.
(§7) Multi-cycle kinetic analysis (MCK): A two-fold, 10-point serial dilution of test compounds was set-up in a 96-well microplate (Greiner; Cat #650101) with a top concentration of either 10 μM or 100 μM. Binding kinetics was measured at 10° C. by injecting serial dilution of compounds onto both reference and CBL immobilized channels at a flow rate of 100 μL/min and association time of 90 seconds. Compound dissociation was monitored for >400 seconds during each cycle. No additional regeneration was used. DMSO calibration curve was obtained before and after compound analysis by injecting 0-4% of DMSO in assay buffer. A suitable compound with known affinity and kinetics was tested once in every experiment as a positive control to assess activity of the captured proteins on the surface.
(§8) Single-cycle kinetic analysis (SCK): A 3-fold, 6-point serial dilution of compounds was set-up in a deep 96-well microplate (Greiner Bio; Cat #780201) with the highest concentration of 1 μM (concentration range: […]). Binding kinetics was measured at 10° C. by injecting serial dilutions of compounds in increasing order onto reference as well as CBL immobilized channels at a flow rate of 100 μL/min and association time of 120 seconds. Compound dissociation was monitored for >5400 seconds. Two buffer blanks were also run in a single-cycle kinetics format before the compound run for double referencing. No additional regeneration was used. DMSO calibration curve was obtained before and after compound analysis by injecting 0-4% of DMSO in the assay buffer. A suitable compound with known affinity and kinetics was tested once in every experiment as a positive control to assess activity of the captured proteins on the surface.

[3] = target: T3, C-CBL (residues 46-435) (Homo sapiens, UniProt P22681); assay: Ligand Displacement Assay (LDA), HTRF competitive binding against BODIPY-labeled fluorescent tracer, C-CBL; settings: geometric mean of the number of tests, read-out: C-CBL Ki (nM) GMean
T3 construct: Purified CBL-B (residues 36-427) and C-CBL (residues 46-435) proteins from baculovirus-infected insect cells; made in house; host or cells: baculovirus-infected insect cells
T3 sequence (P22681 46-435): T2 sequence (P22681 46-435)
Source text: as §1, §2, §3

[4] = target: T4, WT CBL-B (36-427) (Homo sapiens, UniProt Q13191); assay: Surface Plasmon Resonance (SPR) assay, binding affinity and kinetics, CBL-B; settings: SPR at 10° C., biotinylated WT CBL-B (36-427) on streptavidin chip; geometric mean; read-out: CBL-B SPR Kd (nM) GMean
T4 construct: N-terminal biotinylated WT CBL-B (36-427) and C-CBL (46-435) were captured on a streptavidin (SA) coated sensor chip
Method: as §4, §5, §6, §7, §8

Structure (SMILES) | Ki [1] [nM] | Kd [2] [nM] | Ki [3] [nM] | Kd [4] [nM]
Cn1cnnc1[C@@H](c1cccc(-c2n[nH]c3c(CN4CC[C@H](F)C4)nc(C(F)(F)F)cc23)c1)C1CCC1 [Example C110, 3-{3-[(R)-cyclobutyl(4-methyl-4H-1,2,4-triazol-3-yl)methyl]phenyl}-7-{[(3S)-3-fluoropyrrolidin-1-yl]methyl}-5-(trifluoromethyl)-1H-pyrazolo[3,4-c]pyridine] | 50 | 300 | 464 | 6.4
C[C@@H]1CCCN(Cc2nc(C(F)(F)F)cc3c(-c4cccc([C@H](c5nncn5C)C5CCC5)c4)n[nH]c23)C1 [Example C108, 3-{3-[(R)-cyclobutyl(4-methyl-4H-1,2,4-triazol-3-yl)methyl]phenyl}-7-{[(3R)-3-methylpiperidin-1-yl]methyl}-5-(trifluoromethyl)-1H-pyrazolo[3,4-c]pyridine] | 79.4 | 148 | 630 | 5.5
C[C@@H]1CN([C@H](C)c2nc(C(F)(F)F)cc3c(-c4cccc(C5(Cc6nncn6C)COC5)c4)n[nH]c23)CCO1 (single isomer, unassigned) [Example D50] | 9 | 30.1 | 30.7 | 2.6
Cn1cnnc1[C@@H](c1cccc(-c2n[nH]c3c(CN[C@H]4CC[C@H](O)C4)nc(C(F)(F)F)cc23)c1)C1CCC1 [Example D86] | 16.1 | 161 | 106 | 6.4
Cn1cnnc1[C@@H](c1cccc(-c2n[nH]c3c(CN4CC(F)(F)C4)nc(C(F)(F)F)cc23)c1)C1CCC1 [Example C115, 3-{3-[(R)-cyclobutyl(4-methyl-4H-1,2,4-triazol-3-yl)methyl]phenyl}-7-[(3,3-difluoroazetidin-1-yl)methyl]-5-(trifluoromethyl)-1H-pyrazolo[3,4-c]pyridine] | 73.8 | 195 | 1020 | 9.2
C[C@@H](c1nc(C(F)(F)F)cc2c(-c3cccc([C@H](c4nncn4C)C4CCC4)c3)n[nH]c12)N1CCNC(=O)C1 (single isomer, unassigned) [Example D88] | 3.9 | 34.1 | 35.2 | 5.7
CC(CN)c1nc(C(F)(F)F)cc2c(-c3cccc([C@H](c4nncn4C)C4CCC4)c3)n[nH]c12 (single isomer, unassigned) [Example K15] | 30.1 | 452 | 263 | 23.9
C[C@H](c1nc(C(F)(F)F)cc2c(-c3cccc(C4(Cc5nncn5C)COC4)c3)n[nH]c12)N1CC(F)C1 (single isomer, unassigned) [Example D44] | 15.6 | 74 | 47.4 | 5.9
C[C@@H]1CN(Cc2nc(C(F)(F)F)cc3c(-c4cccc([C@H](c5nncn5C)C5CCC5)c4)n[nH]c23)CCO1 [Example C113, 3-{3-[(R)-cyclobutyl(4-methyl-4H-1,2,4-triazol-3-yl)methyl]phenyl}-7-{[(2R)-2-methylmorpholin-4-yl]methyl}-5-(trifluoromethyl)-1H-pyrazolo[3,4-c]pyridine] | 27.1 | 83.6 | 233 | 4.8
C[C@H](c1nc(C(F)(F)F)cc2c(-c3cccc(C4(Cc5nncn5C)COC4)c3)n[nH]c12)N(C)C (single isomer, unassigned) [Example D40] | 23.9 | 88.5 | 98.1 | 5.5
CN(C)Cc1nc(C(F)(F)F)cc2c(-c3cccc(C4(Cc5nncn5C)COC4)c3)n[nH]c12 [Example C51, N,N-dimethyl-1-[3-(3-{3-[(4-methyl-4H-1,2,4-triazol-3-yl)methyl]oxetan-3-yl}phenyl)-5-(trifluoromethyl)-1H-pyrazolo[3,4-c]pyridin-7-yl]methanamine] | 22 | 182 | 115 | 17.8
Cn1cnnc1[C@@H](c1cccc(-c2n[nH]c3c(CNC4CCOCC4)nc(C(F)(F)F)cc23)c1)C1CCC1 [Example D85] | 23.4 | 241 | 237 | 6.9
Cn1cnnc1[C@@H](c1cccc(-c2n[nH]c3c(CN4C[C@H](O)[C@@H](O)C4)nc(C(F)(F)F)cc23)c1)C1CCC1 [Example C76, (3S,4S)-1-{[3-{3-[(R)-cyclobutyl(4-methyl-4H-1,2,4-triazol-3-yl)methyl]phenyl}-5-(trifluoromethyl)-1H-pyrazolo[3,4-c]pyridin-7-yl]methyl}pyrrolidine-3,4-diol] | 3.3 | 52.1 | 41.4 | 2.5
Cn1cnnc1[C@@H](c1cccc(-c2n[nH]c3c(CO)nc(C(F)(F)F)cc23)c1)C1CCC1 [Example K9, [3-{3-[(R)-cyclobutyl(4-methyl-4H-1,2,4-triazol-3-yl)methyl]phenyl}-5-(trifluoromethyl)-1H-pyrazolo[3,4-c]pyridin-7-yl]methanol] | 45.4 | 298 | 328 | 12.7
CC(N[C@H]1CCOC1)c1nc(C(F)(F)F)cc2c(-c3cccc(C4(Cc5nncn5C)COC4)c3)n[nH]c12 (single isomer, unassigned) [Example C81] | 6.5 | 56.5 | 18.2 | 4.6
C[C@@H](N[C@H]1COC[C@@H]1O)c1nc(C(F)(F)F)cc2c(-c3cccc([C@H](c4nncn4C)C4CCC4)c3)n[nH]c12 (single isomer, unassigned) [Example D62] | 4.3 | – | 39.8 | –
CC(N[C@H](C)[C@H](C)O)c1nc(C(F)(F)F)cc2c(-c3cccc([C@H](c4nncn4C)C4CCC4)c3)n[nH]c12 (single isomer, unassigned) [Example C116] | 18.2 | – | 204 | –
Cn1cnnc1[C@@H](c1cccc(-c2n[nH]c3ncc(Cl)cc23)c1)C1CCC1 [Example A4, 5-chloro-3-{3-[(R)-cyclobutyl(4-methyl-4H-1,2,4-triazol-3-yl)methyl]phenyl}-1H-pyrazolo[3,4-b]pyridine] | 17.9 | – | 279 | –
